Converted amounts (≈) assume the structure as drawn. Where two headings read alike, the source gives them in different places. Marks after values point to notes of the source that are not given here.
Key:
[1] = test system: Bovine capillary endothelial cells; experiment: Boyden chamber assay, capillary endothelial cell migration; type: cell-based; details: endothelial mitogen 200 »g/ml, 4 hours
Protocol: The Boyden chamber assay was carried out using a modification of the method of Falk et al., J. Immunol. Meth., 33:239-247 (1980) as follows: Bovine capillary endothelial cells were plated at 1.5 x 10⁴ cells per well in serum-free DMEM (Dulbecco's Modified Eagle's Medium) on one side of nucleopore filters pre-coated with fibronectin (7.3 »g fibronectin/ml PBS). […] Cells were exposed to endothelial mitogen (Biomedical Technologies, Massachusetts) at 200 »g/ml and different concentrations of the AGM-1470 in serum-free DMEM for 4 hours at 37°C. At the end of this incubation, the number of cells that migrated through 8» pores in the filters was determined by counting cells with an ocular grid at 100 X in quadruplicate.

[2] = test system: bFGF-induced angiogenesis; experiment: rat cornea micropocket method (angiogenesis inhibitory activity); type: in vivo, Sprague-Dawley rats; details: rats with angiogenesis inhibitory activity / rats tested; sample pellet 20 »g; judged after 7 days
Protocol: The product compound (I) obtained in the examples given below were evaluated for angiogenesis inhibitory activity by the rat cornea micropocket method.
Essentially the method of Gimbrone et al. [J. National Cancer Institute, 52, 413-419 (1974)] was followed. Thus, adult male Sprague-Dawley rats (11 to 16 weeks of age) were anesthetized with nembutal and locally anesthetized by instillation of xylocaine eyedrops onto the eyeball. The cornea was incised to a length of about 2 mm at about 2mm inside from the corneal circumference by means of an injection needle, and a sustained release pellet containing basic fibroblast growth factor (bFGF; bovine brain-derived, purified product; R & D) and a sustained release pellet containing the test sample were inserted side by side into the incision so that the bFGF pellet was located on the central side in the cornea. In the control group, the bFGF pellet and a sample-free pellet were inserted into the cornea. After 7 days and after 10 days, the cornea was observed under a stereoscopic microscope.
The sustained release pellets were prepared in the following manner. An ethylene-vinyl acetate copolymer (Takeda Chemical Industries) was dissolved in dichloromethane to a concentration of 8%. A 3-»l portion of the solution was air-dried on a glass dish, an aqueous solution of bFGF (250 ng) was then placed thereon and air-dried and, finally 3 »l of the above ethylene-vinyl acetate copolymer solution was placed further thereon and air-dried to give a laminate consisting of two copolymer layers and a bFGF layer sandwiched therebetween. This sandwich sheet was made round into a bFGF pellet. The test sample pellets were prepared by dissolving each sample in ethanol in a concentration of 20 »g/2 »l, mixing the solution (2 »l) with 6 »l of an ethylene-vinyl acetate copolymer solution, air-drying the mixed solution on a glass dish and making the thus-obtained sheet round.

[3] = test system: B16 Mouse Melanoma; type: in vivo
Protocol: Using the B16 Mouse Melanoma model described in Folkman et al., Science, 221:719-725 (1983), the angiogenesis inhibitory activity of AGM-1470 was further evaluated. Treatment (Rx) usually started when tumors were approximately 70-100 mm³, approximately 9 to 10 days after inoculation. Tumors were matched for size before inclusion in treated and untreated groups. AGM-1470 was dissolved in isotonic solution by incubating with glass beads and vigorously shaking overnight at 4°C. This preparation was administered subcutaneously at 30 mg/kg every other day.
Tumor growth is presented as a T/C ratio, as defined below. In essence, a ratio equal to "+ 1" means no inhibition, a ratio equal to "0" means complete suppression of growth, and a negative ratio indicates tumor regression. [formula]

[4] = test system: Chick Chorioallantoic Membranes; experiment: shell-less chorioallantoic membrane (CAM) assay; type: in vivo; details: after 48 - 72 hours
Protocol: The shell-less chorioallantoic membrane (CAM) assay was carried out by the method of Folkman et al. (R.Crum. S.Szabo and J.Folkman; Science. 230. 1375 (1985)) as follows: three-day chick embryos were removed from their shells to petri dishes (Falcon 1005) under sterile hood and cultured for further 3 days.
AGM-1470 was dissolved to a 0.45% methylcellulose aqueous solution and aliquots of 10 »l were pipetted onto Teflon rods. After the solution had dried, the methylcellulose disks (about 2 mm in diameter) containing the compound were implanted on the CAM of 6-day embryos.
An avascular zone represents a region in which regression of pre-existing vessels has occured.
Percent of avascular zones was calculated by counting the disks forming avascular zones per the total disks tested. In each group there were 12 to 16 embryos.

[5] = test system: Human umbilical vein endothelial cells (HUVE); experiment: Inhibition of human endothelial cell growth (MTT); type: cell-based; details: Homo sapiens, Endothelial cell, 120 h, rbFGF 2 ng/ml, 5 day culture, read-out: (IC₅₀)
Protocol: Human umbilical vein endothelial cells (HUVE) were isolated by perfusion of an umbilical vein with a trypsin-containing medium. HUVE were cultured in GIT medium (Diago Eiyou Kagaku, Co., Japan) supplemented with 2.5% fetal bovine serum and 2.0 ng/ml of recombinant human basic fibroblast growth factor (rbFGF, Biotechnology Research Laboratories, Takeda, Osaka, Japan) at 37°C under 5% CO₂ and 7% O₂. HUVE were plated on 96-well microtiter plates (Nunc, 1-67008) at the cell density of 2 x 10³/100 »l of medium. The following day, 100 »l of medium containing rbFGF (2 ng/ml at the final concentration) and each compound (I) (shown by Example Numbers) at various concentrations were added to each well. […] After 5 day culture, medium was removed, 100 »l of 1 mg/ml of MTT (3-(4,5-dimethyl-2-thiazolyl)- 2,5-diphenyl-2H-tetrazolium bromide) solution was added to wells, and microtiters were kept at 37°C for 4 hours. Then, 100 »l of 10% sodium dodecyl sulfate (SDS) solution was added to wells, microtiters were kept at 37° for 5-6 hours. To determine the effects on cell number, the optical density ([…]) of each well was measured using an optical densitometer. […]

[6] = test system: mouse reticulum cell sarcoma (M 5076); experiment: Suppression of tumor formation in vivo (M 5076); set-up: species or system C57BL/6N mice; details: 30 mg/day subcutaneously, 10 injections over 12 days; tumor volume one day after the final injection
Excerpt: The tumor used in this assay was mouse reticulum cell sarcoma (M 5076), maintained by intraperitoneal transplantation into male C57BL/6N mice. The tumor cells in ascites were collected by centrifugation, and suspended in saline. The cell suspension (2 x 10⁶ cells/100 »l/mouse) was inoculated into right flanks of mice. Tumor-bearing mice were subcutaneously treated with the compound (I) (shown by Example Numbers) suspended in 5% arabic gum solution containing 1% of ethanol, for 12 days beginning one day after tumor inoculation (10 injections). The tumor growth was determined by measuring tumor size in two directions with calipers at intervals of a few days. The tumor volumes were calculated by the following formula. Tumor volume (mm³) = length x (width)² […]. [formula]

## CO[C@@H]1[C@H](OC(=O)NC(=O)CCl)CC[C@]2(CO2)[C@H]1[C@@]1(C)O[C@@H]1CC=C(C)C [Example 8, O-Chloroacetylcarbamoylfumagillol]
[1]; Bos taurus, Endothelial cell, read-out: Half maximal inhibition of endothelial mitogen-induced migration
  IC50: ~0.1 ng/mL (≈ 0.249 nM)
[1]; dose of 100 »g/ml
  inhibition of cell migration: completely inhibited
[1]
  Significant inhibition of migration, doses as low as: 10 femptograms/ml
[2]
  Inhibition rate: 6/6*
[3]; 30 mg/kg subcutaneously every other day
  treated remained alive past day 55: Day 37 100% untreated dead 50% AGM-1470 treated dead (50% of treated remained alive past day 55)
[3]; Day 37 (100% untreated dead), 30 mg/kg subcutaneously every other day
  AGM-1470 treated dead: Day 37 100% untreated dead 50% AGM-1470 treated dead (50% of treated remained alive past day 55)
[3]; mouse, in vivo
  toxicity: little or no toxicity
[3]; time of Rx 2 wk, 30 mg/kg subcutaneously every other day
  T/C: 0.47
[3]; time of Rx 3 wk, 30 mg/kg subcutaneously every other day
  T/C: 0.20
[4]; dose 1 »g/10 »l methylcellulose
  percent of avascular zones: 33
[4]; dose 10 »g/10 »l methylcellulose
  percent of avascular zones: 62
[4]; dose 25 »g/10 »l methylcellulose
  percent of avascular zones: 100
[5]
  IC50: 0.01 ng/mL (≈ 0.0249 nM)
[6]
  T/C (%): 14%
